Measurements taken from patent publication US20260365628A1, “SUBSTITUTED 3,4-DIHYDROQUINOLINONE INHIBITORS OF TSHR” (Septerna, Inc., priority 2022, published 2026).

Each molecule was assayed against T1, hTSHR (Homo sapiens, UniProt P16473) (assay: hTSHR TR-FRET cAMP Assay (inhibition of M22-stimulated cAMP production)). Conditions: Expi293F Inducible cells stably expressing hTSHR; cAMP HTRF; stimulated with EC80 of anti-TSHR antibody M22; 15 min compound preincubation, 30 min at 37° C.; read-out: Activity (IC50 bins).
T1 construct: expressed in transfected cells
Format: cell-based
In short: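 Readout was a cAMP HTRF ratio of 655/620 nm after lysis, scaled between the EC80 M22 signal (0% inhibition) and no-agonist vehicle (100%). Frozen induced Expi293F-hTSHR cells saw test compounds (0.5% DMSO) for 15 min at 37 °C before 30 min of M22 stimulation at EC80.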

T1 sequence (P16473 21-764): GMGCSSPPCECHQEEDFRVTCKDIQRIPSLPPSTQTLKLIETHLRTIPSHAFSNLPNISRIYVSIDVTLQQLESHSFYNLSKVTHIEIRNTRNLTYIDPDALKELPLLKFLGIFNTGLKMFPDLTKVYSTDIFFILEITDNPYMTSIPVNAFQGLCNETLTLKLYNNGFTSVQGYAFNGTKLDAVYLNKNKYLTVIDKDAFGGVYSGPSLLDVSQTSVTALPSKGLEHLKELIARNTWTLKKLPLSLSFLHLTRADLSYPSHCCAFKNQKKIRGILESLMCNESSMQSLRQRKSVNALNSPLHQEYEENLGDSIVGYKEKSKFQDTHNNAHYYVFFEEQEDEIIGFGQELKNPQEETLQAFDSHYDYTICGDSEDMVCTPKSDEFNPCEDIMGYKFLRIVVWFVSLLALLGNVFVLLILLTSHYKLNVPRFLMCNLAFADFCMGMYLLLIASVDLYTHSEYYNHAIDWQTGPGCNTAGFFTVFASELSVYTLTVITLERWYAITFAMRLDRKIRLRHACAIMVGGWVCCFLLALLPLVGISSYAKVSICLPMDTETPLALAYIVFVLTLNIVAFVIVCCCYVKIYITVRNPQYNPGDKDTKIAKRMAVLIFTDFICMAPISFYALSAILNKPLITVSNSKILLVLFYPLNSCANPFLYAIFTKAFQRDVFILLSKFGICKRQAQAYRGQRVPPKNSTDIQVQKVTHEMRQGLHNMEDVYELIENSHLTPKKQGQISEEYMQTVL

`C[C@@H](c1cccc(OC(F)(F)F)c1)n1c(=O)cnc2cc(NC(=O)NC34CCC(CC3)C4)ccc21` [Example 211, (S)-1-(bicyclo[2.2.1]heptan-1-yl)-3-(2-oxo-1-(1-(3-(trifluoromethoxy)phenyl)ethyl)-1,2-di-hydroquinoxalin-6-yl)urea] and `C[C@@H](c1cccc(OC(F)(F)F)c1)n1c(=O)cnc2cc(NC(=O)NC34CCC(C3)C4)ccc21` [Example 213, (S)-1-(bicyclo[2.1.1]hexan-1-yl)-3-(2-oxo-1-(1-(3-(trifluoromethoxy)phenyl)ethyl)-1,2-dihydroquinoxalin-6-yl)urea] cannot be ordered by IC50: < 100 nM for the first, < 100 nM for the second.

First: C[C@@H](c1cccc2c1COCC2)n1c(=O)cnc2cc(NC(=O)NC(C)(C)C)ccc21 [Example 123, (S)-1-(tert-butyl)-3-(1-(1-(isochroman-8-yl)ethyl)-2-oxo-1,2-dihydroquinoxalin-6-yl)urea]
Second: C[C@@H](c1cccc(OC(F)(F)F)c1)n1c(=O)cnc2cc(NC(=O)NC(C)(C)C)ccc21 [Example 100, (S)-1-(tert-butyl)-3-(2-oxo-1-(1-(3-(trifluoromethoxy)phe-nyl)ethyl)-1,2-dihydroquinoxalin-6-yl)urea]
The IC50 of the first is higher: 100 to 1000 nM for the first, < 100 nM for the second.

`CC(C)C1Cc2cc(NC(=O)NC(C)(C)C)ccc2N(Cc2ccccc2)C1=O` (stereo not drawn) [Example 32, 1-(1-benzyl-3-isopropyl-2-oxo-1,2,3,4-tetrahydroquinolin-6-yl)-3-(tert-butyl)urea] and `C[C@@H]1Cc2cc(NC(=O)NC(C)(C)C)c(F)cc2N(Cc2ccccc2)C1=O` (single isomer, unassigned) [Example 334] cannot be ordered by IC50: > 1000 nM for the first, > 1000 nM for the second.

First: C[C@@H](c1cccc(OC(F)(F)F)c1)n1c(=O)cnc2cc(NC(=O)NC3(C(F)(F)F)COC3)ccc21 [Example 222]
Second: C[C@@H](c1cccc(CCC(C)(C)O)c1)n1c(=O)cnc2cc(NC(=O)NC(C)(C)C)ccc21 [Example 116, (S)-1-(tert-butyl)-3-(1-(1-(3-(3-hydroxy-3-methylbutyl)phenyl)ethyl)-2-oxo-1,2-dihydroquinoxalin-6-yl)urea]
The IC50 of the first is lower: 100 to 1000 nM for the first, > 1000 nM for the second.

First: CC(C)(C)NC(=O)Nc1ccc2c(c1)CCC(=O)N2Cc1ccc(F)cc1 [Example 27, 1-(tert-butyl)-3-(1-(4-fluorobenzyl)-2-oxo-1,2,3,4-tetrahydroquinolin-6-yl)urea]
Second: Cc1cccc([C@H](C)N2C(=O)CCc3cc(NC(=O)NC(C)(C)C)ccc32)c1 [Example 56, (S)-1-(tert-butyl)-3-(2-oxo-1-(1-(m-tolyl)ethyl)-1,2,3,4-tetrahydroquinolin-6-yl)urea]
The IC50 of the first is higher: 100 to 1000 nM for the first, < 100 nM for the second. The second is the more potent here.

Compared with `C[C@@H](c1cccc(C(F)(F)F)c1)N1C(=O)CCc2nc(NC(=O)NC(C)(C)C)ccc21` [Example 282, (S)-1-(tert-butyl)-3-(6-oxo-5-(1-(3-(trifluoromethyl)phenyl)ethyl)-5,6,7,8-tetrahydro-1,5-naphthyridin-2-yl)urea], `CC(C)(C)NC(=O)Nc1ccc2c(c1C#N)CCC(=O)N2Cc1ccccc1` [Example 279, 1-(1-benzyl-5-cyano-2-oxo-1,2,3,4-tetrahydroquinolin-6-yl)-3-(tert-butyl)urea] is higher in IC50: 100 to 1000 nM for the first, > 1000 nM for the second. The first is the more potent here.

Compared with `C[C@@H](c1ccccc1)n1c(=O)cnc2cc(NC(=O)NC(C)(C)C)c(Cl)cc21` [Example 344, (S)-1-(tert-butyl)-3-(7-chloro-2-oxo-1-(1-phenylethyl)-1,2-dihydroquinoxalin-6-yl)urea], `C[C@H]1Oc2cc(NC(=O)NC(C)(C)C)ccc2N(Cc2cc(Cl)ccc2Cl)C1=O` [Example 176, (R)-1-(tert-butyl)-3-(4-(2,5-dichloro-benzyl)-2-methyl-3-oxo-3,4-dihydro-2H-benzo [b][1,4]oxazin-7-yl)urea] is lower in IC50: 100 to 1000 nM for the first, < 100 nM for the second. The second is the more potent here.

With `C[C@H]1Oc2cc(NC(=O)NC3(C(F)(F)F)CCCC3)ccc2N(Cc2cccc(C(F)(F)F)n2)C1=O` [Example 234, (R)-1-(2-methyl-3-oxo-4-((6-(trifluoromethyl)pyridin-2-yl)methyl)-3,4-dihydro-2H-benzo[b][1,4]oxazin-7-yl)-3-(1-(trifluoromethyl)cyclopentyl)urea] the IC50 was < 100 nM.
